This note sets out measurements from ChEMBL document CHEMBL1150336, “Synthesis and antibacterial activity of novel pyrido[1,2,3-de][1,4]benzoxazine-6-carboxylic acid derivatives carrying the 3-cyclopropylaminomethyl-4-substituted-1-pyrrolidinyl group as a C-10 substituent” (J Med Chem, 2008).

≈ marks a conversion by molar mass, not a printed value.

In series [1] the test system is Klebsiella pneumoniae. The experiment in a line: Antibacterial activity against Klebsiella pneumoniae IID5209 after 18 hrs by agar dilution method. The class given is functional.
Series [2] relates to Escherichia coli. Kind of series: Antibacterial activity against Escherichia coli NIHJ JC2 after 18 hrs by agar dilution method. The series is classed as functional. The conditions noted are these: NIHJ JC2, 18 h. Background: In agar dilution, organisms are placed on agar that contains the substance at set levels.
Series [3] relates to Enterococcus faecalis. Kind of series: Antibacterial activity against Enterococcus faecalis IID682 after 18 hrs by agar dilution method. The class given is functional.
Series [4] relates to Streptococcus pyogenes. The experiment in a line: Antibacterial activity against Streptococcus pyogenes IID692 after 18 hrs by agar dilution method. The class given is functional.
The test system of series [5] is Staphylococcus aureus. Kind of series: Antibacterial activity against Staphylococcus aureus Smith after 18 hrs by agar dilution method. The series is classed as functional.
Series [6] deals with Haemophilus influenzae. The experiment in a line: Antibacterial activity against Haemophilus influenzae IID983 after 18 hrs by agar dilution method. The series is classed as functional.
Series [7] concerns Streptococcus pneumoniae. Kind of series: Antibacterial activity against Streptococcus pneumoniae type 3 after 18 hrs by agar dilution method. The series is classed as functional.
Series [8] relates to Pseudomonas aeruginosa. Kind of series: Antibacterial activity against Pseudomonas aeruginosa IID1210 after 18 hrs by agar dilution method. The series is classed as functional.
The subject of series [9] is Staphylococcus aureus. The experiment in a line: Antibacterial activity against quinoline-resistant Staphylococcus aureus OITI MR1-1002 isolate after 18 hrs by agar dilution method. The series is classed as functional.
Series [10] concerns Streptococcus pneumoniae. Kind of series: Antibacterial activity against quinoline-resistant Streptococcus pneumoniae no.55 isolate after 18 hrs by agar dilution method. The class given is functional.
The test system of series [11] is Enterococcus faecalis. Kind of series: Antibacterial activity against quinoline-resistant Enterococcus faecalis No.15 isolate after 18 hrs by agar dilution method. The series is classed as functional.
In series [12] the test system is Enterococcus faecalis. Kind of series: Antibacterial activity against vancomycin-resistant Enterococcus faecalis KU1856 after 18 hrs by agar dilution method. The series is classed as functional.
Series [13] relates to Enterococcus faecalis. Kind of series: Antibacterial activity against vancomycin-resistant Enterococcus faecalis KU1866 after 18 hrs by agar dilution method. The class given is functional.
For series [14], the system named is Mus musculus. The experiment in a line: Toxicity in ICR mouse assessed as mortality administered as single dose at 100 mg/kg, iv after 7 days. The class given is organism-based. On the set-up: dose 100 mg/kg, route intravenous. The conditions noted are these: in vivo, 168 h.
In series [15] the test system is Mus musculus. Kind of series: Toxicity in intracerebroventricularly dosed ICR mouse assessed as induction of convulsion after 2 hrs in absence of fenbufen. The series is classed as organism-based. To be noted: in vivo, icv_or_intrathecal.
Series [16] deals with Mus musculus. Kind of series: Toxicity in intracerebroventricularly dosed ICR mouse assessed as induction of convulsion after 2 hrs in presence of fenbufen. The class given is organism-based. To be noted: in vivo, icv_or_intrathecal.
The test system of series [17] is Mus musculus. Kind of series: Phototoxicity in orally dosed ICR mouse assessed as skin erythema after 72 hrs. To be noted: in vivo, po. The class given is organism-based.
The subject of series [18] is Mus musculus. Kind of series: Toxicity in ICR mouse assessed as mortality administered as single dose at 200 mg/kg, iv after 7 days. The class given is organism-based. To be noted: in vivo, 168 h. On the set-up: dose 200 mg/kg, route intravenous.

For the compound `O=C(O)c1cn2c3c(c(N4CC[C@@H](CNC5CC5)C4)c(F)cc3c1=O)OC[C@@H]2CF`, the MIC in series [1] is 0.031 µg/mL (≈ 0.0739 µM); in [2], 0.004 µg/mL (≈ 0.00954 µM); in [3], 0.063 µg/mL (≈ 0.15 µM); in [4] it was 0.031 µg/mL (≈ 0.0739 µM); in series [5], 0.008 µg/mL (≈ 0.0191 µM); in series [6] it was 0.004 µg/mL (≈ 0.00954 µM). The MIC in [7] was 0.016 µg/mL (≈ 0.0381 µM); in [8], 2 µg/mL (≈ 4.77 µM); in series [9], 2 µg/mL (≈ 4.77 µM); in [10], 0.25 µg/mL (≈ 0.596 µM); in [11], 1 µg/mL (≈ 2.38 µM); in series [12], 0.5 µg/mL (≈ 1.19 µM). The MIC in [13] is 0.5 µg/mL (≈ 1.19 µM). The Activity entry in series [14] was “Non-toxic”; in series [15], 10 µg; in series [16], 10 µg; in series [17], “Non-toxic”.

Regarding `C[C@H]1CN(c2c(F)cc3c(=O)c(C(=O)O)cn4c3c2OC[C@@H]4CF)C[C@@H]1CNC1CC1`, the MIC in series [1] was found to be 0.125 µg/mL (≈ 0.288 µM); in series [2], 0.016 µg/mL (≈ 0.0369 µM); in series [3] it was 0.063 µg/mL (≈ 0.145 µM); in [4] it was 0.031 µg/mL (≈ 0.0715 µM); in [5], 0.008 µg/mL (≈ 0.0185 µM); in series [6] it was 0.008 µg/mL (≈ 0.0185 µM). In addition, the MIC was found to be 0.031 µg/mL (≈ 0.0715 µM) in series [7]; 4 µg/mL (≈ 9.23 µM) in series [8]; 2 µg/mL (≈ 4.61 µM) in series [9]; 0.5 µg/mL (≈ 1.15 µM) in [10]; 1 µg/mL (≈ 2.31 µM) in series [11]; 1 µg/mL (≈ 2.31 µM) in [12]. The MIC in series [13] was 1 µg/mL (≈ 2.31 µM). Also, the Activity entry in [14] was “Non-toxic”; in series [15] it was 40 µg; in [16], 20 µg; in series [17], “Non-toxic”.

Take `C[C@H]1COc2c(N3C[C@H](CNC4CC4)[C@H](F)C3)c(F)cc3c(=O)c(C(=O)O)cn1c23`: the MIC was 0.031 µg/mL (≈ 0.0739 µM) in [1]; 0.008 µg/mL (≈ 0.0191 µM) in series [2]; 0.063 µg/mL (≈ 0.15 µM) in series [3]; 0.031 µg/mL (≈ 0.0739 µM) in series [4]; 0.008 µg/mL (≈ 0.0191 µM) in [5]; 0.004 µg/mL (≈ 0.00954 µM) in [6]. The MIC was 0.016 µg/mL (≈ 0.0381 µM) in [7]; 2 µg/mL (≈ 4.77 µM) in [8]; 1 µg/mL (≈ 2.38 µM) in [9]; 0.125 µg/mL (≈ 0.298 µM) in series [10]; 0.5 µg/mL (≈ 1.19 µM) in series [11]; 0.5 µg/mL (≈ 1.19 µM) in series [12]. In addition, the MIC in series [13] worked out at 0.5 µg/mL (≈ 1.19 µM). Moreover, the Activity result was “Non-toxic” in series [14], “Non-toxic” in [18], greater than 40 µg in series [15] and greater than 40 µg in [16].

On to `O=C(O)c1cn2c3c(c(N4C[C@H](CNC5CC5)[C@@H](F)C4)c(F)cc3c1=O)OC[C@@H]2CF`, for which the MIC in [1] came out at 0.125 µg/mL (≈ 0.286 µM); in series [2], 0.031 µg/mL (≈ 0.0709 µM); in [3] it was 0.125 µg/mL (≈ 0.286 µM); in [4] it was 0.125 µg/mL (≈ 0.286 µM); in series [5] it was 0.016 µg/mL (≈ 0.0366 µM); in [6], 0.008 µg/mL (≈ 0.0183 µM). For the same compound, the MIC in series [7] turned out to be 0.063 µg/mL (≈ 0.144 µM); in series [8], 4 µg/mL (≈ 9.14 µM); in [9], 16 µg/mL (≈ 36.6 µM); in [10] it was 2 µg/mL (≈ 4.57 µM); in [11], 4 µg/mL (≈ 9.14 µM); in series [12] it was 2 µg/mL (≈ 4.57 µM). The MIC in [13] was determined as 4 µg/mL (≈ 9.14 µM).

`CCNCC1CCN(c2c(F)cc3c(=O)c(C(=O)O)cn4c3c2OC[C@@H]4C)C1` (some centres not stated): the MIC in [2] was 0.031 µg/mL (≈ 0.0796 µM); in series [3] it was 0.25 µg/mL (≈ 0.642 µM); in [4], 0.063 µg/mL (≈ 0.162 µM); in series [5], 0.125 µg/mL (≈ 0.321 µM); in [7] it was 0.063 µg/mL (≈ 0.162 µM); in series [8] it was 4 µg/mL (≈ 10.3 µM). The MIC was determined as 32 µg/mL (≈ 82.2 µM) in series [9]; 2 µg/mL (≈ 5.14 µM) in [10]; 32 µg/mL (≈ 82.2 µM) in series [11]; 16 µg/mL (≈ 41.1 µM) in [12]; 16 µg/mL (≈ 41.1 µM) in [13].

With `C[C@H]1CN(c2c(F)cc3c(=O)c(C(=O)O)cn4c3c2OC[C@@H]4C)C[C@@H]1CNC1CC1`, the MIC in series [1] stood at 0.125 µg/mL (≈ 0.301 µM); in series [2] it was 0.016 µg/mL (≈ 0.0385 µM); in series [3], 0.031 µg/mL (≈ 0.0746 µM); in series [4], 0.016 µg/mL (≈ 0.0385 µM); in series [5], 0.002 µg/mL (≈ 0.00481 µM); in [6] it was 0.008 µg/mL (≈ 0.0193 µM). The MIC in series [7] came to 0.016 µg/mL (≈ 0.0385 µM); in [8] it was 4 µg/mL (≈ 9.63 µM); in [9], 2 µg/mL (≈ 4.81 µM); in series [10] it was 0.5 µg/mL (≈ 1.2 µM); in [11], 1 µg/mL (≈ 2.41 µM); in series [12], 1 µg/mL (≈ 2.41 µM). For the same compound, the MIC in series [13] turned out to be 1 µg/mL (≈ 2.41 µM). Besides, the Activity entry was “Non-toxic” in series [14], “Toxic” in series [18], greater than 40 µg in series [15] and greater than 40 µg in [16].
